Assay results from US10131652B2, “Pyrimidinyloxy benzene derivatives as herbicides” (E. I. DU PONT DE NEMOURS AND COMPANY, priority 2014, dated 2018).
Read-outs that look alike come from different tables or passages of the source.

Tests used:
Assay in all cases: Test D pre-/postemergence plant response
Format in all cases: in vivo
[1] = system: ragweed (common ragweed, Ambrosia elatior); details: Ambrosia artemisiifolia; for pest or weed control at 62 g/ha: 62 g ai/ha; for pest or weed control at 125 g/ha: 125 g ai/ha
Summary of the method: (§1)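 Visual injury scoring (0–100) at 13 to 15 days in greenhouse. Preemergence sprays on seeded loam/sand; postemergence sprays on 1–4 leaf plants.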

[2] = system: lambsquarters (Chenopodium album); details: Chenopodium album; for pest or weed control at 16 g/ha: 16 g ai/ha; for pest or weed control at 31 g/ha: 31 g ai/ha; for pest or weed control at 62 g/ha: 62 g ai/ha; for pest or weed control at 125 g/ha: 125 g ai/ha
Summary of the method: as §1

corn (Zea mays) = details: Zea mays; for Corn plant response rating (crop injury, 0 = no effect, 100 = complete kill) at 62 g/ha: 62 g ai/ha
Summary of the method: as §1

[3] = system: pigweed (Amaranthus retroflexus); details: Amaranthus retroflexus; for pest or weed control at 16 g/ha: 16 g ai/ha; for pest or weed control at 31 g/ha: 31 g ai/ha; for pest or weed control at 62 g/ha: 62 g ai/ha; for pest or weed control at 125 g/ha: 125 g ai/ha
Summary of the method: as §1

[4] = system: Italian ryegrass (Lolium multiflorum); details: Lolium multiflorum; for pest or weed control at 16 g/ha: 16 g ai/ha; for pest or weed control at 31 g/ha: 31 g ai/ha; for pest or weed control at 62 g/ha: 62 g ai/ha; for pest or weed control at 125 g/ha: 125 g ai/ha
Summary of the method: as §1

[5] = system: barnyardgrass (Echinochloa crus-galli); details: Echinochloa crus-galli; for pest or weed control at 16 g/ha: 16 g ai/ha; for pest or weed control at 16 g/ha / pest or weed control at 31 g/ha: scale 0 to 100 (0 no effect, 100 complete control); for pest or weed control at 31 g/ha: 31 g ai/ha; for pest or weed control at 62 g/ha: 62 g ai/ha; for pest or weed control at 125 g/ha: 125 g ai/ha
Summary of the method: as §1

[6] = system: waterhemp (common waterhemp, Amaranthus rudis); details: Amaranthus tuberculatus; for pest or weed control at 16 g/ha: 16 g ai/ha; for pest or weed control at 31 g/ha: 31 g ai/ha; for pest or weed control at 62 g/ha: 62 g ai/ha; for pest or weed control at 125 g/ha: 125 g ai/ha
Summary of the method: as §1

[7] = post-emergence, Postemergence, scale 0 to 100, 0 no effect, 100 complete control, read-out: Plant response rating, Ragweed
[8] = post-emergence, Postemergence, scale 0 to 100 (0 no effect, 100 complete control), read-out: Lambsquarters plant response rating
[9] = post-emergence, Postemergence, scale 0 to 100, 0 no effect, 100 complete control, read-out: Plant response rating, Lambsquarters
[10] = pre-emergence, Preemergence, scale 0 to 100 (0 no effect, 100 complete control), read-out: Plant response rating, Lambsquarters
[11] = post-emergence, Postemergence, scale 0 to 100 (0 no effect, 100 complete control), read-out: Pigweed plant response rating
[12] = post-emergence, Postemergence, scale 0 to 100, 0 no effect, 100 complete control, read-out: Plant response rating, Pigweed
[13] = pre-emergence, Preemergence, scale 0 to 100 (0 no effect, 100 complete control), read-out: Plant response rating, Pigweed
[14] = post-emergence, Postemergence, scale 0 to 100 (0 no effect, 100 complete control), read-out: Ryegrass, Italian plant response rating
[15] = post-emergence, Postemergence, scale 0 to 100, 0 no effect, 100 complete control, read-out: Plant response rating, Ryegrass, Italian
[16] = pre-emergence, Preemergence, scale 0 to 100 (0 no effect, 100 complete control), read-out: Plant response rating, Ryegrass, Italian
[17] = post-emergence, Postemergence, read-out: Barnyardgrass plant response rating
[18] = post-emergence, Postemergence, scale 0 to 100, 0 no effect, 100 complete control, read-out: Plant response rating, Barnyardgrass
[19] = pre-emergence, Preemergence, read-out: Plant response rating (scale 0 to 100), Barnyardgrass
[20] = pre-emergence, Preemergence, read-out: Plant response rating, Barnyardgrass
[21] = post-emergence, Postemergence, scale 0 to 100 (0 no effect, 100 complete control), read-out: Waterhemp plant response rating
[22] = post-emergence, Postemergence, scale 0 to 100, 0 no effect, 100 complete control, read-out: Plant response rating, Waterhemp
[23] = pre-emergence, Preemergence, scale 0 to 100 (0 no effect, 100 complete control), read-out: Plant response rating, Waterhemp

Structure (SMILES): FC(F)(F)c1cc(-c2ccccc2Oc2ncc(Cl)cn2)on1 [Compound 63, 5-chloro-2-[2-[3-(trifluoromethyl)-5-isoxazolyl]phenoxy]pyrimidine]
- pest or weed control at 62 g/ha [1, 7]: 55%
- pest or weed control at 125 g/ha [1, 7]: 55%
- pest or weed control at 125 g/ha ([1]; pre-emergence, Preemergence, read-out: Plant response rating (scale 0 to 100), Ragweed): 70%
- pest or weed control at 16 g/ha ([1]; pre-emergence, Preemergence, 16 g ai/ha, scale 0 to 100 (0 no effect, 100 complete control), read-out: Plant response rating, Ragweed): 75%
- pest or weed control at 31 g/ha ([1]; pre-emergence, Preemergence, 31 g ai/ha, scale 0 to 100 (0 no effect, 100 complete control), read-out: Plant response rating, Ragweed): 20%
- pest or weed control at 62 g/ha ([1]; pre-emergence, Preemergence, scale 0 to 100 (0 no effect, 100 complete control), read-out: Plant response rating, Ragweed): 55%
- pest or weed control at 16 g/ha [2, 8]: 10%
- pest or weed control at 31 g/ha [2, 8]: 70%
- pest or weed control at 62 g/ha [2, 9]: 85%
- pest or weed control at 125 g/ha [2, 9]: 90%
- pest or weed control at 125 g/ha ([2]; pre-emergence, Preemergence, read-out: Plant response rating (scale 0 to 100), Lambsquarters): 95%
- pest or weed control at 16 g/ha [2, 10]: 95%
- pest or weed control at 31 g/ha [2, 10]: 90%
- pest or weed control at 62 g/ha [2, 10]: 90%
- plant injury at 16 g/ha (corn (Zea mays); post-emergence, Postemergence, 16 g ai/ha, scale 0 to 100 (0 no effect, 100 complete control), read-out: Corn plant response rating): 5%
- plant injury at 31 g/ha (corn (Zea mays); post-emergence, Postemergence, 31 g ai/ha, scale 0 to 100 (0 no effect, 100 complete control), read-out: Corn plant response rating): 5%
- Corn plant response rating (crop injury, 0 = no effect, 100 = complete kill) at 62 g/ha (corn (Zea mays); post-emergence, Postemergence, scale 0 to 100, 0 no effect, 100 complete control): 5%
- Corn plant response rating (crop injury, 0 = no effect, 100 = complete kill) at 125 g/ha (corn (Zea mays); post-emergence, Postemergence, 125 g ai/ha, scale 0 to 100, 0 no effect, 100 complete control): 10%
- plant injury at 125 g/ha (corn (Zea mays); pre-emergence, Preemergence, 125 g ai/ha, read-out: Plant response rating (scale 0 to 100), Corn): 15%
- Corn plant response rating (crop injury, 0 = no effect, 100 = complete kill) at 16 g/ha (corn (Zea mays); pre-emergence, Preemergence, 16 g ai/ha, scale 0 to 100 (0 no effect, 100 complete control)): 0%
- Corn plant response rating (crop injury, 0 = no effect, 100 = complete kill) at 31 g/ha (corn (Zea mays); pre-emergence, Preemergence, 31 g ai/ha, scale 0 to 100 (0 no effect, 100 complete control)): 5%
- Corn plant response rating (crop injury, 0 = no effect, 100 = complete kill) at 62 g/ha (corn (Zea mays); pre-emergence, Preemergence, scale 0 to 100 (0 no effect, 100 complete control)): 15%
- pest or weed control at 16 g/ha [3, 11]: 85%
- pest or weed control at 31 g/ha [3, 11]: 85%
- pest or weed control at 62 g/ha [3, 12]: 90%
- pest or weed control at 125 g/ha [3, 12]: 95%
- pest or weed control at 125 g/ha ([3]; pre-emergence, Preemergence, read-out: Plant response rating (scale 0 to 100), Pigweed): 100%
- pest or weed control at 16 g/ha [3, 13]: 95%
- pest or weed control at 31 g/ha [3, 13]: 100%
- pest or weed control at 62 g/ha [3, 13]: 100%
- pest or weed control at 16 g/ha [4, 14]: 0%
- pest or weed control at 31 g/ha [4, 14]: 0%
- pest or weed control at 62 g/ha [4, 15]: 5%
- pest or weed control at 125 g/ha [4, 15]: 30%
- pest or weed control at 125 g/ha ([4]; pre-emergence, Preemergence, read-out: Plant response rating (scale 0 to 100), Ryegrass, Italian): 90%
- pest or weed control at 16 g/ha [4, 16]: 0%
- pest or weed control at 31 g/ha [4, 16]: 40%
- pest or weed control at 62 g/ha [4, 16]: 80%
- pest or weed control at 16 g/ha [5, 17]: 5%
- pest or weed control at 31 g/ha [5, 17]: 10%
- pest or weed control at 62 g/ha [5, 18]: 10%
- pest or weed control at 125 g/ha [5, 18]: 10%
- pest or weed control at 62 g/ha [5, 19]: 98%
- pest or weed control at 125 g/ha [5, 19]: 100%
- pest or weed control at 16 g/ha [5, 20]: 30%
- pest or weed control at 31 g/ha [5, 20]: 65%
- pest or weed control at 16 g/ha [6, 21]: 85%
- pest or weed control at 31 g/ha [6, 21]: 85%
- pest or weed control at 62 g/ha [6, 22]: 98%
- pest or weed control at 125 g/ha [6, 22]: 98%
- pest or weed control at 125 g/ha ([6]; pre-emergence, Preemergence, read-out: Plant response rating (scale 0 to 100), Waterhemp): 100%
- pest or weed control at 16 g/ha [6, 23]: 90%
- pest or weed control at 31 g/ha [6, 23]: 100%
- pest or weed control at 62 g/ha [6, 23]: 100%
